Data taken from patent publication US10913753B2, “Thienopyridine carboxamides as ubiquitin-specific protease inhibitors” (FORMA Therapeutics, Inc., priority 2016, dated 2021).

Legend:
USP28 = USP28 (Homo sapiens (Human), UniProt Q96RU2); assay: Ubiquitin-Rhodamine 110 Assay for USP28 Activity; format: biochemical
Method: The assay was performed in a final volume of 20 μL in assay buffer containing 20 mM Tris-HCl (pH 8.0, (1M Tris-HCl, pH 8.0 solution; Corning 46-031-CM)), 2 mM CaCl2 (1M Calcium Chloride solution; Sigma #21114) 2 mM BME (2-Mercaptoethanol; Sigma 63689-25ML -F), 0.01% Prionex (0.22 μM filtered, Sigma #G-0411), and 0.01% Triton X-100. Stock compound solutions were stored at −20° C. as 10 mM in DMSO. Up to 1 month prior to the assay, 2 mM test compounds were pre-dispensed into assay plates (Black, low volume; Corning #3820) and frozen at −20° C. Prestamped assay plates were allowed to come to room temperature on the day of the assay. For the screen, 100 nL of 2 mM was pre-dispensed for a final screening concentration of 10 μM (DMSO(fc)=0.5%). […] Plates were incubated stacked for 90 minutes at room temperature before fluorescence was read on the Envision (Excitation at 485 nm and Emission at 535 nm; Perkin Elmer) or on the PheraSTAR (Excitation at 485 nm and Emission at 535 nm; BMG Labtech).
For follow-up studies, the assay was performed in a final volume of 15 μL in assay buffer containing 20 mM Tris-HCl (pH 8.0, (1M Tris-HCl, pH 8.0 solution; Corning 46-031-CM)), 3 mM BME (2-Mercaptoethanol; Sigma 63689-25ML-F), 0.03% BGG (0.22 μM filtered, Sigma, G7516-25G), and 0.01% Triton X-100 (Sigma, T9284-10L). Nanoliter quantities of either an 8-point or 10-point, 3-fold serial dilution in DMSO was pre-dispensed into assay plates (Perkin Elmer, ProxiPlate-384 F Plus) for a final test concentration of either 25 μM to 11 nM or 25 μM to 1.3 nM, respectively. Enzyme USP28, construct USP28 (USP28-5(1-1077)-TEV-6*His; LifeSensors) concentration and incubation times were optimized for the maximal signal-to -background while maintaining initial velocity conditions at a fixed substrate concentration. The final concentration of the enzyme in the assay was 75 pM. […] 5 μL of 2× enzyme was added to assay plates (pre-stamped with compound) preincubated with USP28 for 30 minutes and then 5 μL of 2× Ub-Rh110 was added to assay plates. Plates were incubated stacked for 20 min at room temperature before 5 μL of stop solution was added (final concentration of 10 mM citric acid (Sigma, 251275-500G)). Fluorescence was read on the Envision (Excitation at 485 nm and Emission at 535 nm; Perkin Elmer) or on the PheraSTAR (Excitation at 485 nm and Emission at 535 nm; BMG Labtech).
(§1) For both the USP28 and USP25 assay formats, data were reported as percent inhibition compared with control wells based on the following equation: % inh=1-((FLU-AveLow)/(AveHigh−AveLow)) where FLU=measured Fluorescence, AveLow=average Fluorescence of no enzyme control (n=16), and AveHigh=average Fluorescence of DMSO control (n=16). IC50 values were determined by curve fitting of the standard 4 parameter logistic fitting algorithm included in the Activity Base software package: IDBS XE Designer Model205. Data is fitted using the Levenburg Marquardt algorithm.

USP25 = USP25 (Homo sapiens (Human), UniProt Q9UHP3); assay: Ubiquitin-Rhodamine 110 Assay for USP25 Activity; format: biochemical
Method: The assay was performed in a final volume of 9 μL in assay buffer containing 20 mM Tris-HCl (pH 8.0, (1M Tris-HC1, pH 8.0 solution; Corning 46-031-CM)), 3 mM BME (2-Mercaptoethanol; Sigma 63689-25ML-F), 0.03% BGG (0.22 μM filtered, Sigma, G7516-25G), and 0.01% Triton X-100 (Sigma, T9284-10L). Nanoliter quantities of 10-point, 3-fold serial dilution in DMSO was pre-dispensed into 1536 assay plates (Corning, #3724BC) for a final test concentration of 25 μM to 1.3 nM, top to lowest dose, respectively. Enzyme USP25, construct USP25-His6, (Boston Biochem E-546). Concentration and incubation times were optimized for the maximal signal-to-background while maintaining initial velocity conditions at a fixed substrate concentration. The final concentration of the enzyme in the assay was 75 pM. […] 3 μL of 2× enzyme was added to assay plates (pre-stamped with compound) preincubated with […] for 30 minutes and then 3 μL of 2× Ub-Rh110 was added to assay plates. Plates were incubated for 45 minutes at room temperature before addition of 3 μL of stop solution (final concentration of 10 mM citric acid (Sigma, 251275-500G)). Fluorescence was read on the Envision (Excitation at 485 nm and Emission at 535 nm; Perkin Elmer) or on the PheraSTAR (Excitation at 485 nm and Emission at 535 nm; BMG Labtech).
as §1

USP25, sequence (Q9UHP3 whole entry): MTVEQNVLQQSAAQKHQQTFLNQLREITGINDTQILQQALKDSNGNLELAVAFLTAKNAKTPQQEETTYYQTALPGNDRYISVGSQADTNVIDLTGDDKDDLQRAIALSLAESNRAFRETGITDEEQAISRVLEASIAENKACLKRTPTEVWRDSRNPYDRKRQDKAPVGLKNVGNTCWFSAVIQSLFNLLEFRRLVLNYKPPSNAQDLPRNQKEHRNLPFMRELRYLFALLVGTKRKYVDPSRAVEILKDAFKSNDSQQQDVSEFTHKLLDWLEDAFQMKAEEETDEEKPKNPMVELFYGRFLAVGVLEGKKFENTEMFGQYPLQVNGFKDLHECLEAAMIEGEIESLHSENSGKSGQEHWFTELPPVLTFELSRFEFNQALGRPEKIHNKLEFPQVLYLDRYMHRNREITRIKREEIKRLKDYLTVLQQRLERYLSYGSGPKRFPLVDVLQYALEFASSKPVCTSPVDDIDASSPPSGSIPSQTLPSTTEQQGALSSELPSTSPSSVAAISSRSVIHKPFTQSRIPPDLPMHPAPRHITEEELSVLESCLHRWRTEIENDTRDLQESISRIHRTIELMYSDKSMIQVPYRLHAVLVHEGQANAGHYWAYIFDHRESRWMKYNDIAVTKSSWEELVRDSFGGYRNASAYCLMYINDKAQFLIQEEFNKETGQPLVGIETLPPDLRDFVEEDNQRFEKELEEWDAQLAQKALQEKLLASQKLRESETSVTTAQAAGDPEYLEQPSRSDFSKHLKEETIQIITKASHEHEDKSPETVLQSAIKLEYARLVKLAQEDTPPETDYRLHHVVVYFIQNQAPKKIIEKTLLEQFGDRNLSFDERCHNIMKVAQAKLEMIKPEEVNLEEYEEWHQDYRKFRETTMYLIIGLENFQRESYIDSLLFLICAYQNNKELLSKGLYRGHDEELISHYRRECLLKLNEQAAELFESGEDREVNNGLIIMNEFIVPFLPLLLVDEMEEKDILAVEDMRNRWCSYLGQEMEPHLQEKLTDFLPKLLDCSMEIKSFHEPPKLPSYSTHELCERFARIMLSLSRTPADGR
USP28, sequence (Q96RU2 whole entry): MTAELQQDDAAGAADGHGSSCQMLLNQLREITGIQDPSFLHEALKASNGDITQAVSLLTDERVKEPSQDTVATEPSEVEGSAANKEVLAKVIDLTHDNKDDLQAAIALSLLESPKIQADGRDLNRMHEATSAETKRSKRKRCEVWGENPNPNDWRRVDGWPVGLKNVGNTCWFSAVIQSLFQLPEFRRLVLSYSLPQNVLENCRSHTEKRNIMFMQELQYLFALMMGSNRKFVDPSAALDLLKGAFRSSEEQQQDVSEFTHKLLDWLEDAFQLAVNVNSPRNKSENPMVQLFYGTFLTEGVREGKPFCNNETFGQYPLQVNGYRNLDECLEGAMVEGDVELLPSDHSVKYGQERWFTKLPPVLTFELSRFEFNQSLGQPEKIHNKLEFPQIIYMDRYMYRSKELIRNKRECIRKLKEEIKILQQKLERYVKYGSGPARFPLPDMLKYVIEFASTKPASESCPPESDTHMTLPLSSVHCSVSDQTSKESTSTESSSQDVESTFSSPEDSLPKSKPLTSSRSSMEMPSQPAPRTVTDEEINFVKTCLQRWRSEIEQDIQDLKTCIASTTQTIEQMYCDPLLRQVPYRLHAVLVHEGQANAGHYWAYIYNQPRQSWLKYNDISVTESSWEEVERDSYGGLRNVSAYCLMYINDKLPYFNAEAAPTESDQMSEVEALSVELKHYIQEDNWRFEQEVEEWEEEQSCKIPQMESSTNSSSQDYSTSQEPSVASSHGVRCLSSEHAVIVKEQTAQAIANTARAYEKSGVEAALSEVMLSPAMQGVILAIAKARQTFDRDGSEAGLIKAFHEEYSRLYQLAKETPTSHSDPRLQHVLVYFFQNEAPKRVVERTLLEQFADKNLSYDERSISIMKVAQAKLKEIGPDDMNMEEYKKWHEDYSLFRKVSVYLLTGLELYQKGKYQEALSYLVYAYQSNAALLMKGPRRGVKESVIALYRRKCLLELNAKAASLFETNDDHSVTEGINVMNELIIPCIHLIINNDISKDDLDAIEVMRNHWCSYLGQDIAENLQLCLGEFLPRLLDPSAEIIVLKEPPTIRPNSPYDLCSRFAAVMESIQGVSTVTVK

Cc1cc2c(N)c(C(=O)NCCc3ccc(N4CCNCC4)c(Cl)c3)sc2nc1C [Compound I-31]
IC50 (USP28): 2 to 10 µM | IC50 (USP25): 2 to 10 µM

Nc1c(C(=O)NCCc2ccc(N3CCNCC3)cc2)sc2nc(C(F)(F)F)ccc12 [Compound I-33]
IC50 (USP28): 2 to 10 µM | IC50 (USP25): 2 to 10 µM

Cc1ccc2c(N)c(C(=O)NCCc3cc(F)c(N4CC5CCC(C4)N5)cc3F)sc2n1 [Compound I-34]
IC50 (USP28): < 0.2 µM | IC50 (USP25): 0.2 to 2 µM

Cc1ccc2c(N)c(C(=O)NCCc3ccc(N4CC5CCC(C4)N5)cc3C#N)sc2n1 [Compound I-36]
IC50 (USP28): < 0.2 µM | IC50 (USP25): 0.2 to 2 µM

COCc1cc(N2CCNCC2)ccc1CCNC(=O)c1sc2nc(C)ccc2c1N [Compound I-37]
IC50 (USP28): < 0.2 µM | IC50 (USP25): 0.2 to 2 µM

Cc1ccc2c(N)c(C(=O)NCCc3ccc(-n4ncc5c4CNC5)cc3)sc2n1 [Compound I-38]
IC50 (USP28): 0.2 to 2 µM | IC50 (USP25): 2 to 10 µM

Nc1c(C(=O)NCCc2ccc(N3CCNCC3)c(Cl)c2)sc2ncc(Cl)cc12 [Compound I-40]
IC50 (USP28): 0.2 to 2 µM | IC50 (USP25): 2 to 10 µM

Cc1ccc2c(N)c(C(=O)NCCc3ccc(-n4ncc5c4CNC5)cc3F)sc2n1 [Compound I-41]
IC50 (USP28): < 0.2 µM | IC50 (USP25): 0.2 to 2 µM

Nc1c(C(=O)NCCc2ccc(N3CCNCC3)cc2)sc2nc(CO)ccc12 [Compound I-43]
IC50 (USP28): 0.2 to 2 µM | IC50 (USP25): 2 to 10 µM

CCc1cc(CCNC(=O)c2sc3nc(C)ccc3c2N)ccc1N1CC2CCC(C1)N2 [Compound I-44]
IC50 (USP28): < 0.2 µM | IC50 (USP25): < 0.2 µM

CCc1ccc2c(N)c(C(=O)NCCc3ccc(N4CCNCC4)cc3)sc2n1 [Compound I-47]
IC50 (USP28): < 0.2 µM | IC50 (USP25): < 0.2 µM

CCc1ccc2c(N)c(C(=O)NCCc3cc(F)c(N4CCNCC4)cc3F)sc2n1 [Compound I-48]
IC50 (USP28): < 0.2 µM | IC50 (USP25): < 0.2 µM

Cc1ccc2c(N)c(C(=O)NCCc3cc(F)c(N4C[C@@H]5C[C@H]4CN5)cc3F)sc2n1 [Compound I-52]
IC50 (USP28): < 0.2 µM | IC50 (USP25): 0.2 to 2 µM

Cc1ccc2c(N)c(C(=O)NCCc3cc(F)c(N4C[C@H]5C[C@@H]4CN5)cc3F)sc2n1 [Compound I-53]
IC50 (USP28): < 0.2 µM | IC50 (USP25): < 0.2 µM

Cc1ccc2c(N)c(C(=O)NCCc3ccc(N4CC5CCC(C4)N5)c(C#N)c3)sc2n1 [Compound I-54]
IC50 (USP28): < 0.2 µM | IC50 (USP25): 0.2 to 2 µM

Cc1cc(Cl)nc2sc(C(=O)NCCc3ccc(N4CCNCC4)cc3)c(N)c12 [Compound I-56]
IC50 (USP28): 0.2 to 2 µM | IC50 (USP25): 0.2 to 2 µM

CN1CCC(c2ccc(CCNC(=O)c3sc4nc(Cl)ccc4c3N)cc2)CC1 [Compound I-58]
IC50 (USP28): < 0.2 µM | IC50 (USP25): 0.2 to 2 µM

CN1CCN(c2ccc(CCNC(=O)c3sc4nc(Cl)ccc4c3N)cc2)CC1 [Compound I-59]
IC50 (USP28): 0.2 to 2 µM | IC50 (USP25): 0.2 to 2 µM

Nc1c(C(=O)NCCc2ccc(C3CCNCC3)cc2)sc2nc(Cl)ccc12 [Compound I-60]
IC50 (USP28): 0.2 to 2 µM | IC50 (USP25): 0.2 to 2 µM

Cc1cc2c(N)c(C(=O)NCCc3ccc(N4CCNCC4)cc3)sc2nc1C [Compound I-61]
IC50 (USP28): 0.2 to 2 µM | IC50 (USP25): 2 to 10 µM

Cc1cc(C(F)F)nc2sc(C(=O)NCCc3ccc(N4CCNCC4)cc3)c(N)c12 [Compound I-62]
IC50 (USP28): < 0.2 µM | IC50 (USP25): < 0.2 µM

Cc1nc2sc(C(=O)NCCc3ccc(N4CCNCC4)cc3)c(N)c2cc1F [Compound I-63]
IC50 (USP28): < 0.2 µM | IC50 (USP25): 0.2 to 2 µM

Cc1ccc2c(N)c(C(=O)NCCc3ccc(N4C5CNCC4C5)cc3)sc2n1 [Compound I-64]
IC50 (USP28): < 0.2 µM | IC50 (USP25): < 0.2 µM

Cc1ccc2c(N)c(C(=O)NCCc3ccc(N4CC5CC(C4)N5)cc3)sc2n1 [Compound I-65]
IC50 (USP28): < 0.2 µM | IC50 (USP25): < 0.2 µM

COc1nc2sc(C(=O)NCCc3cc(F)c(N4CCNCC4)cc3F)c(N)c2cc1F [Compound I-68]
IC50 (USP28): 0.2 to 2 µM | IC50 (USP25): 2 to 10 µM

Nc1c(C(=O)NCCc2cc(F)c(N3CC4CCC(C3)N4)cc2F)sc2ncc(F)cc12 [Compound I-69]
IC50 (USP28): < 0.2 µM | IC50 (USP25): 0.2 to 2 µM

Cc1ccc2c(N)c(C(=O)NCCc3cc(F)c(NC4CNC4)cc3F)sc2n1 [Compound I-70]
IC50 (USP28): < 0.2 µM | IC50 (USP25): 0.2 to 2 µM
